Assay results taken from patent publication US9815851B2, “Pyrrolo carboxamides as modulators of orphan nuclear receptor RAR-related orphan receptor-gamma (RORγ, NR1F3) activity and for the treatment of chronic inflammatory and autoimmune diseases” (PHENEX PHARMACEUTICALS AG, priority 2011, dated 2017).
Read-outs that look alike come from different tables or passages of the source.

Experiments:
[1] = target: T1, RORγ (UniProt P51449); assay: RORγ Gal4 Reporter Gene Assay in 293T cells (firefly and renilla luciferase); assay type: cell-based, human
T1 sequence (P51449 1-518): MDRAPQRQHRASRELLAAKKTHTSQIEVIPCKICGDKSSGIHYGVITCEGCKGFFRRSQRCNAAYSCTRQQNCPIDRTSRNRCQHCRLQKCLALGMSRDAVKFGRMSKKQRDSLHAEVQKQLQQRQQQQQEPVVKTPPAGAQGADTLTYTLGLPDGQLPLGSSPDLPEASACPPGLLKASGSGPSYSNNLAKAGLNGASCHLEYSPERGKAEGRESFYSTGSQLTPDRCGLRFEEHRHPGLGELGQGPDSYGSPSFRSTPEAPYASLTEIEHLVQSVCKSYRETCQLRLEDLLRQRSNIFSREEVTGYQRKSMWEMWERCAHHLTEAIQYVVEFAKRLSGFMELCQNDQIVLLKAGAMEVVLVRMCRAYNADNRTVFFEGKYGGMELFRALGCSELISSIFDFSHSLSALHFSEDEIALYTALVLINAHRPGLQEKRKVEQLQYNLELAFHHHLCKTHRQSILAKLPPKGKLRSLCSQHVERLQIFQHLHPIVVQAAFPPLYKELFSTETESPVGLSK

[2] = target: T2, RORγ ligand binding domain (LBD) (Homo sapiens, UniProt P51449); assay: TR-FRET Activity Assay (ligand sensing, RORγ-LBD / coactivator peptide interaction, LANCE); assay type: biochemical
T2 construct: made in house; host or cells: E. coli BL-21 (BL3), vector pDEST15
T2 sequence (P51449 269-508 limits assumed): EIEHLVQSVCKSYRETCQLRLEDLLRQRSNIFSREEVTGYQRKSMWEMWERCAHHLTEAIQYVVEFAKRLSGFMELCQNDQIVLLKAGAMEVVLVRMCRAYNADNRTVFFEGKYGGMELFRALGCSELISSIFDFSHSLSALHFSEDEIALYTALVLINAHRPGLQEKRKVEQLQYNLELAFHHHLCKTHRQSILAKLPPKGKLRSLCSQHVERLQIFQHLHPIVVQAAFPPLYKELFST

[3] = second value of the cell, Gal4 reporter gene assay in 293T cells, firefly luciferase
[4] = third value of the cell, Gal4 reporter gene assay in 293T cells, renilla normalised luciferase
[5] = first value of the cell FRET/FF/REN, TR-FRET activity assay, read-out: pIC50 (FRET) (converted)

Compound	pIC50 (FF) [1]	pIC50 (REN) [1]	IC50 [2]	pIC50 (FF) [1, 3]	pIC50 (REN) [1, 4]	IC50 [2, 5]
Cc1c(C(=O)NCC(C)(C)O)cc(-c2cc(C(=O)NC(C)(C)C)cc(C3(C)CC3)c2)n1CC1CCCCC1 [1/111]	6.4/7.4/7.4	6.4/7.4/7.4	398 nM	–	–	–
Cc1c(C(=O)NC2COC2)cc(-c2ccc(S(=O)(=O)N(C)C(C)(C)C)c(C(C)(C)C)c2)n1CC1CCCCC1 [9/5]	–	–	–	7.2	7.2	316 nM
Cc1c(C(=O)NC2CCOCC2)cc(-c2ccc(S(=O)(=O)NC(C)(C)C)c(C(C)(C)C)c2)n1CC1CCCCC1 [1/131]	6.3/7.8/7.8	6.3/7.8/7.8	501 nM	–	–	–
Cc1c(C(=O)NC2CCOCC2)cc(-c2ccc(C(=O)NC3CCCCC3)c(C(C)(C)C)c2)n1CC1CCCCC1 [6/6]	6.2/6.8/6.7	6.2/6.8/6.7	631 nM	–	–	–
Cc1c(C(=O)NCCc2nn[nH]n2)cc(-c2ccc(S(=O)(=O)NC(C)(C)C)c(C(C)(C)O)c2)n1CC1CCCCC1 [17/336]	–	–	–	< 4.7	< 4.7	1000 nM
Cc1c(C(=O)NCC(C)(C)NS(C)(=O)=O)cc(-c2ccc(S(=O)(=O)NC(C)(C)C)c(C(C)(C)C)c2)n1CC1CCCCC1 [1/123]	–	–	–	6.8	6.8	501 nM
Cc1c(C(=O)NC2COC2)cc(-c2cc(C(F)(F)F)c(=O)n(CC(C)(C)C)c2)n1CC1CCCCC1 [9/14]	–	–	–	6.3	6.2	7940 nM
Cc1c(C(=O)NCCS(N)(=O)=O)cc(-c2cc(C(C)(C)O)cc(C3(C)CC3)c2)n1CC1CCCCC1 [17/315]	–	–	–	6.5	6.5	1260 nM
Cc1c(C(=O)NC2CNC(=O)C23CCOCC3)cc(-c2ccc(S(=O)(=O)NC(C)(C)C)c(C(F)(F)F)c2)n1CC1CCCCC1 (stereo not drawn) [17/295]	–	–	–	6.6	6.5	1000 nM
CCC(C)(C)NS(=O)(=O)c1ccc(-c2cc(C(=O)NC3CCOCC3)c(C)n2CC2CCCC2)cc1C(F)(F)F [17/216]	–	–	–	7.8	7.8	200 nM
Cc1c(C(=O)NCC(C)(C)CC(N)=O)cc(-c2cc(C(C)(C)C)c3c(c2)C2(CCO3)CC2)n1CC1CCCCC1 [17/20]	–	–	–	7.1	7.1	398 nM
Cc1c(C(=O)NC[C@H]2CCCO2)cc(-c2cc(C(C)(C)C)c3c(c2)C2(CCO3)CC2)n1CC1CCCCC1 [17/5]	–	–	–	6.4	6.4	316 nM
Cc1c(C(=O)NC2CCS(=O)(=O)C2)cc(-c2cc(C(C)(C)C)c3c(c2)C2(CCO3)CC2)n1CC1CCCCC1 (stereo not drawn) [17/15]	–	–	–	7.2	7.1	794 nM
Cc1c(C(=O)NC2CCOCC2)cc(-c2ccc(C(=O)NCC3CCCCC3)c(C(C)(C)C)c2)n1CC1CCCCC1 [6/7]	6.0/6.5/6.4	6.0/6.5/6.4	1000 nM	–	–	–
Cc1c(C(=O)N2CC(O)C2)cc(-c2cc(C(C)(C)C)cc(C(C)(C)C)c2)n1CC1CCCCC1 [1/7]	–	–	–	6.8	6.8	501 nM
Cc1c(C(=O)N[C@H]2C[C@H](C(=O)O)C2)cc(-c2ccc(S(=O)(=O)NCC(F)(F)F)c3ccccc23)n1CC1CCCCC1 [17/271]	–	–	–	7.1	7.1	794 nM
Cc1c(C(=O)NCC2(O)CCOCC2)cc(-c2ccc(S(=O)(=O)NC(C)(C)C)c3ccccc23)n1CC1CCC1 [17/243]	–	–	–	7.4	7.6	631 nM
Cc1c(C(=O)NCCCCC(=O)O)cc(-c2cc(C(C)(C)C)cc(C(C)(C)C)c2)n1CC1CCCCC1 [1/73]	–	–	–	7.2	7.2	1260 nM
Cc1c(C(=O)NC2CCOCC2)cc(-c2cc(F)c(S(=O)(=O)NC(C)(C)C)c(C(F)(F)F)c2)n1CC1CCCCC1 [17/229]	–	–	–	7.2	7.3	631 nM
Cc1c(C(=O)NC2CCOCC2)cc(-c2ccc(C(=O)N(C)C)c(C(C)(C)C)c2)n1CC1CCCCC1 [6/5]	–	–	–	6.5	6.4	2510 nM
Cc1c(C(=O)NC2CCOCC2)cc(-c2ccc(S(=O)(=O)NC(C)(C)C)c3c(F)cccc23)n1CC1CCCCC1 [17/363]	–	–	–	7.4	7.5	1000 nM
Cc1c(C(=O)NCC2(O)CCOCC2)cc(-c2cc(C(C)(C)C)c3c(c2)C(C)(C)C(=O)N3C)n1CC1CCCCC1 [17/48]	–	–	–	7.6	7.5	1000 nM
Cc1c(C(=O)NC2CCOCC2)cc(-c2ccc(S(=O)(=O)NCC3(C)COC3)c(C(F)(F)F)c2)n1CC1CCCCC1 [17/147]	–	–	–	6.7	6.7	794 nM
Cc1c(C(=O)NCCCCC[S+](C)[O-])cc(-c2cc(C(C)(C)C)c3c(c2)C2(CCO3)CC2)n1CC1CCCCC1 (stereo not drawn) [17/79]	5.8/6.4/6.3	5.8/6.4/6.3	1580 nM	–	–	–
Cc1c(C(=O)NC2CC(C)(O)C2)cc(-c2cc(C(C)(C)C)c3c(c2)C2(CCO3)CC2)n1CC1CCCCC1 (stereo not drawn) [17/22]	–	–	–	6.5	6.6	1000 nM
Cc1c(C(=O)NCc2nnn[nH]2)cc(-c2cc(C(C)(C)C)cc(C3(C)CC3)c2)n1CC1CCCCC1 [17/71]	–	–	–	6.9	6.8	1580 nM
Cc1c(C(=O)NC2COC2)cc(-c2cc(C(=O)NC(C)C)cc(C(C)(C)C)c2)n1CC1CCCCC1 [15/6]	–	–	–	7.4	7.4	1260 nM
COC(=O)CC1(NC(=O)c2cc(-c3cc(C(C)(C)C)cc(C(C)(C)C)c3)n(CC3CCCCC3)c2C)COC1 [17/46]	–	–	–	6.5/6.5/6.5	6.5/6.5/6.5	316 nM
Cc1c(C(=O)NC23CCC(C(=O)O)(CC2)CC3)cc(-c2cc(C(C)(C)O)cc(C3(C)CC3)c2)n1CC1CCCCC1 [17/302]	–	–	–	7.3	7.2	1580 nM
